Patent US5661182A, “Method for lowering oxygen affinity of hemoglobin in redcell suspensions, in whole blood and in vivo” (Virginia Commonwealth University, priority 1995, dated 1997)
“Also recorded” adds a separate entry of the source.

Columns and labels:
deoxyhemoglobin [1] = molecular target: T1, deoxyhemoglobin (Homo sapiens, UniProt P68871+P69905); experiment: X-ray crystallographic studies with deoxyhemoglobin; type: binding; conditions: near Arg 104β
Protocol: X-ray Crystallographic Studies. Hemoglobin for the crystal studies was prepared from human blood, and T-state deoxy crystals were obtained from ammonium sulfate solutions. RSR-4 or RSR-13 (2 effectors/I Hb) was dissolved in a slight excess of sodium bicarbonate to facilitate dissolution and was added to a 6 g % solution of deoxy-Hb in the glove box. A 1 g % Hb RSR-4 or RSR-13 solution was added to each crystallization tube. Crystals grew in approximately 1 week. X-ray data were collected with Friedel pairs using ω scans on a Rigaku AFC5R diffractometer equipped with a rotating anode and a 60-cm long evacuated beam tunnel. The crystals with allosteric effectors were isomorphous with native deoxy-Hb: RSR-4, 63.2, 83.7, and 53.8 Å, 99.4°; RSR-13, 63.2, 83.6, and 53.7 Å, 99.5°. Data collection (RSR-4 to 2.4-Å and RSR-13 to 2.8-Å resolution) was controlled by TEXAN software from Molecular Structure Corp. (The Woodlands, Tex.). There was little radiation damage to crystals, and new crystals were mounted when standard reference reflection intensities fell by 10%. All data were corrected for radiation damage when appropriate. The R-factors for the Friedel pairs and derivatives vs. native were as follows: RSR-4 (2.4 Å), 14.6% and 18.9%, and RSR-13 (2.8 Å), 7.2% and 12.5%, respectively. The difference electron density maps were obtained using the Cambridge computer programs (CCP4). […] The allosteric effector molecules were well resolved and easily fit to the difference density.

[2] = molecular target: hemoglobin in fresh human red blood cells (Homo sapiens, UniProt P68871+P69905); experiment: Oxygen equilibrium curves of fresh human red cell suspensions (p50); type: cell-based; conditions: presence of DIDS
Protocol: Human blood was collected on heparin from healthy nonsmoking donors. Bovine blood was provided by Pr Delpech, INA (Paris-Grignon). Red blood cells were washed three times in isotonic buffer, kept at 4° C., and used within 24 h after sampling. Hemoglobin Yakima, a high-oxygen-affinity variant [α2 β2 99 (G1) Asp>>His], was obtained from a known heterozygous carrier. Fresh Yakima red cells were processed in the same way as described above.
L3,5 and L3,4,5 were provided by Dr. Lalezari (Montefiore Hospital, New York); RSR-4 [2-[4-[[(3,5-dichloroanilino)carbonyl]methyl]phenoxy]-2-methylpropionic acid]and RSR13 [2-4-[[(3,5- dimethylanilino)carbonyl]methyl]phenoxy]-2-methylpropionic acid] have been synthesized following the procedure described in Randad et al. (J. Med. Chem. 34,752 (1991)). Human serum albumin (HSA), bovine serum albumin (BSA) and 4,4'diisothiocyanatostilbene-2,2'-disulfonate (DIDS) were purchased from Sigma (St. Louis, Mo.). Due to their low solubility in aqueous buffer, 10 mM stock solutions of the compounds were prepared in a slight exccess of sodium bicarbonate and back-titrated to pH 7.4. For example, RSR-4 or RSR-13 was dissolved at 60° C. in a 140 mM NaCl and 50 mM bis-Tris buffer at room temperature upon progressive addition of NaHCO3 to obtain 10 mM stock solutions. The pH was carefully adjusted to 7.4 after complete solubilization and before use of the solutions. Fresh solutions were prepared each week. Stock solutions of DIDS (1 mM) were prepared, in the dark, on the day of the experiments in a pH 7.4 buffer. Human serum albumin (defatted HSA) and bovine serum albumin (BSA) were prepared freshly as 1 mM stock solutions, pH 7.4. Equilibrium Measurements. The allosteric modulation of the effectors on freshly prepared solutions of hemoglobin or red cell suspensions was measured by the change in p50, the partial pressure of oxygen for half-saturation. Oxygen equilibrium curves (OEC) were carried out with the Hemox analyzer (TCS, Southampton, Pa.) under the following conditions: pH 7.4, 140 mM NaCl and 50 mM bis-Tris buffer at 37° C. In all experiments, the concentration of hemoglobin in the red cell suspensions was 20-25 μM hemoglobin tetramer (Hb4) as measured by Drabkin's method (cyanomethemoglobin) at the end of each recording. The final concentration of the allosteric effector in the cuvette was 0.5 mM, resulting in an effector/Hb4 ratio of 20 in the absence of albumin. OEC were also made in the same buffer containing 12.5, 25, 50, and 100 μM HSA (for human red cell suspensions) or BSA (for bovine cell suspensions). The serum albumin experiments were carried out with traces of an antifoaming agent. This agent has no deleterious effect on the red cell suspensions. The molar ratio of albumin to tetrameric hemoglobin was varied from 0.5 (at 12.5 μM HSA) to 4 (at 100 μM HSA); in whole blood this ratio is approximately 0.3 (0.7 mM albumin plus plasma proteins/2.25 mM Hb4). Therefore, the concentration of albumin used in the present studies was always larger relative to tetrameric hemoglobin than that found in whole blood.
Equilibrium oxygen binding curves were also recorded for red cell suspensions (10% hematocrit) that had been reacted for 30 min in the dark at 37° C. with 20 μM DIDS, a specific inhibitor of the red cell membrane anion channel. Kinetic Experiments. The kinetics of the interaction between the effectors and intracellular hemoglobin were measured in the absence and presence of varying concentrations of HSA. The red cell suspensions were equilibrated under room air (pO2 =140 mmHg) at 37° C. in the optical cuvette of the Hemox analyzer, which provides a constant stirring of the suspensions. […] Changes in absorbance were recorded and stored on tape for further analyses. […]

purified Hb Yakima = experiment: Effect on purified Hb Yakima; type: biochemical, human
hemoglobin [3] = experiment: Comparison of allosteric effector strength (right shift of oxygen equilibrium curve); type: biochemical; conditions: compounds of FIG. 1
[4] = cited from earlier work
deoxyhemoglobin [5] = molecular target: T1, deoxyhemoglobin; conditions: X-ray, literature; cited from earlier work
hemoglobin [6] = conditions: hemoglobin solutions, fresh intact red cells; cited from earlier work
human red cells = experiment: Hemolysis of human red cells in vitro; type: cell-based
bovine red cells = experiment: Hemolysis of bovine red cells in vitro; type: cell-based

With `CC(C)(Oc1ccc(NC(=O)Nc2cc(Cl)c(Cl)c(Cl)c2)cc1)C(=O)O` [L3,4,5, reference compound] the “second symmetry-related pair of binding sites” value (deoxyhemoglobin [1]) was “have a second symmetry-related pair of binding sites near Arg 104β”, the “effect of DIDS (anion channel inhibitor) on the effect of the compounds” value [2] was “does not inhibit the effects of the compounds” and the “state of purified Hb Yakima in the presence of effector” value (purified Hb Yakima) was “remains locked in the high-affinity R-state”. The “allosteric effector strength” value (hemoglobin [3]) was “much stronger allosteric effect”.
For `O=C(O)C(COP(=O)(O)O)OP(=O)(O)O` (stereo not shown) [DPG, 2,3-diphospho-glyceric acid], the “state of purified Hb Yakima in the presence of effector” value (purified Hb Yakima) was “remains locked in the high-affinity R-state”.
For `CC(C)(Oc1ccc(CNC(=O)c2ccc(Cl)cc2)cc1)C(=O)O` [MM-25], the “second symmetry-related pair of binding sites” value (deoxyhemoglobin [1]) was “have a second symmetry-related pair of binding sites near Arg 104β” and the “allosteric effector strength” value (hemoglobin [3]) was “somewhat stronger than bezafibrate”.
In the case of `CC(C)(Oc1ccc(CCNC(=O)c2ccc(Cl)cc2)cc1)C(=O)O` [bezafibrate], the “inhibition of effect by serum albumin (prior art, words)” value [4] is listed as “significantly inhibited by serum albumin”, the “binding site in deoxyhemoglobin (prior art, words)” value (deoxyhemoglobin [5]) is listed as “bind to the same sites in the central water cavity of deoxyhemoglobin” and the “allosteric effector strength” value (hemoglobin [3]) is listed as “weakest effector; also recorded: much stronger allosteric effect”. For the same compound, the “lowering of oxygen affinity / allosteric potency (prior art, words)” value (hemoglobin [6]) was “much more effective in lowering the oxygen affinity of hemoglobin solutions and suspensions of fresh, intact red cells”.
For `CC(C)(Oc1ccc(Cl)cc1)C(=O)O` [clofibric acid], the “binding site in deoxyhemoglobin (prior art, words)” value (deoxyhemoglobin [5]) is listed as “bind to the same sites in the central water cavity of deoxyhemoglobin”, the “allosteric effector strength” value (hemoglobin [3]) is listed as “only a relatively small effect in terms of lowering the oxygen affinity of hemoglobin” and the “lowering of oxygen affinity / allosteric potency (prior art, words)” value (hemoglobin [6]) is listed as “lowered the oxygen affinity of hemoglobin solutions”.
For `Cc1cc(C)cc(NC(=O)Cc2ccc(OC(C)(C)C(=O)O)cc2)c1` [RSR-3], the hemolysis (human red cells) was “No hemolysis” and the hemolysis (bovine red cells) was “No hemolysis”.
